Assays:
[1] = Pharmacokinetics assay in mice; format: in vivo; details: female, mouse, po, C57 mice, intragastric, 2 mg/kg, plasma; for Vd/F: read-out: Apparent distribution volume Vz/F; for AUC: read-out: Area under curve AUC; for CL/F: read-out: Clearance CLz/F; for half-life: read-out: Half-life T1/2 (converted); for Cmax: read-out: Plasma concentration Cmax; for MRT: read-out: Residence time MRT
Procedure: Mice were used as test animals. The drug concentration in plasma at different time points was determined by LC/MS/MS method after administration of the compounds 1-P2, 2-P2, 4-P2, 6-P2, 9-P2, 10-P2 and 11-P2. The pharmacokinetic behavior of the compounds of the present disclosure was studied and evaluated in mice.
Sixty-three C57 mice (female, equally divided into seven groups) were purchased from Shanghai Jiesijie Laboratory Animal Co., LTD. (Certificate No.: SCXK(Shanghai)2013-0006).
A certain amount of the test compound was weighed, dissolved in 5% of DMSO by volume and 5% of tween 80, followed by the additon of 90% of normal saline to prepare a 0.1 mg/mL colorless, clear and transparent solution.
After an overnight fast, C57 mice were intragastrically administered the test compound at an administration dose of 2 mg/kg and an administration volume of 0.2 ml/10 g.
The mice were intragastrically administered the test compounds. 0.1 ml of blood was taken before the administration and at 0.25, 0.5, 1.0, 2.0, 4.0, 6.0, 8.0, 11.0 and 24.0 hours after the administration. The samples were stored in heparinized tubes, and centrifuged for 10 minutes at 3500 rpm to separate the blood plasma. The plasma samples were stored at −20° C.
The content of the test compound in the plasma of mice after intragastrical administration of the test compound at different concentrations was determined: 25 μL of […] plasma at each time point after the administration was taken, followed by the addition of 50 μL of the internal standard camptothecin solution (100ng/mL) and 200 μL of acetonitrile. The resulting solution was vortex-mixed for 5 minutes, and centrifuged for 10 minutes (4000 rpm). 4 μL of the supernatant was taken from the plasma samples for LC/MS/MS analysis.

Colo205 cells = test: In vitro proliferation inhibition test on Colo205 tumor cells (CellTiter-Glo); format: cell-based; details: Homo sapiens, COLO 205, 72 h; Colo205 cell proliferation, 3 days of culture, CTG
Procedure: The purpose of this experiment is to test the inhibitory activity of the compounds of the present disclosure on the proliferation of Colo205 cells (CCL-222, ATCC) in vitro. The cells were treated in vitro with different concentrations of the compounds. After 3 days of culture, the cell proliferation was tested with CTG (CellTiter-Glo® Luminescent Cell Viability Assay, Promega, Catalog No. G7573) reagent, and the in vitro activity of the compounds was evaluated according to the ICso value.
In the following, the in vitro proliferation inhibition test method of Colo205 cells is taken as an example to illustrate the method for testing the in vitro proliferation inhibitory activity of the compounds of the present disclosure on tumor cells. This method is also applicable to, but not limited to, the in vitro proliferation inhibitory activity test on other tumor cells.
Colo205 cells were digested, centrifuged and then resuspended. The single cell suspension was mixed well, and the density of viable cells was adjusted to 5.0×10^4 cells/ml with cell culture medium (RPMI1640+2% FBS), and 95 μL/well was added to a 96-well cell culture plate. Only 100 μL medium was added to the peripheral wells of the 96-well plate. The culture plate was incubated in an incubator for 24 hours (37° C., 5% CO2).
The compound was dissolved in DMSO (dimethyl sulfoxide, Shanghai Titan Scientific Co., Ltd.) and prepared as a stock solution with an initial concentration of 20 mM. The initial concentration of the small molecule compound was 2 mM, and then 4-fold diluted into 9 points, and the 10th point was DMSO. Another 96-well plate was taken, and 90 μL of cell culture medium (RPMI1640+2% FBS) was added to each well. Then 10 μL of different concentrations of the test sample was added to each well. The mixture was mixed well, and then 5μL of different concentrations of the test sample was added to the cell culture plate. Each sample has two duplicate holes. The culture plate was incubated in the incubator for 3 days (37° C., 5% CO2). The 96-well cell culture plate was taken out. 50 μL solution of CTG was added to each well, and the plate was incubated for 10 minutes at room temperature. In a microplate reader (BMG labtech, PHERAstar FS), chemiluminescence was measured with the microplate reader.
(§1) Microsoft Excel, Graphpad Prism 5 was used to process and analyze the data.

ERK1 = biological target: T1, ERK1 (Homo sapiens, UniProt P27361); test: ERK1 enzyme activity test (ADP-Glo Kinase Assay); format: biochemical; details: ADP-Glo chemiluminescence
T1 construct: purchased R&D 1879-KS-010
T1 sequence (P27361 whole entry): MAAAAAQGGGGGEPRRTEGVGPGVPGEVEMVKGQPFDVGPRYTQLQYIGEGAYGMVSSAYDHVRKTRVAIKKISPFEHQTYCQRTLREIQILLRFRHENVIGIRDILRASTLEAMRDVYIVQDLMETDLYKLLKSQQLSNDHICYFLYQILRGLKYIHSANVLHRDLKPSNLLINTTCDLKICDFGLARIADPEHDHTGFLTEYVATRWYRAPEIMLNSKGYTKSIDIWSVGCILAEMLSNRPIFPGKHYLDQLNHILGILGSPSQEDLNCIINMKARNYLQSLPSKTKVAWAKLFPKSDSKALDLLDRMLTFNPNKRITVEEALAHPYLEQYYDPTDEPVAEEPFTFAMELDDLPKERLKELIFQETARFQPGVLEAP
Procedure: (§2) The purpose of this experiment is to detect the inhibitory ability of the compounds of the present disclosure on the ERK1 enzyme activity and to evaluate the in vitro activity of the compounds based on the IC50. The ADP-Glo™ Kinase Assay Kit was used in this experiment. The substrate was phosphorylated under the action of the enzyme and ADP was produced at the same time. The ADP-Glo reagent was added to remove the unreacted ATP in the reaction system, and the ADP produced by the reaction was detected with kinase detection reagent. In the presence of the compound, the inhibition rate of the compound was calculated by measuring the signal value.
Preparation of Enzyme and substrate: ERK1 (1879-KS-010, R&D) and substrate (AS-61777, anaspec) were prepared to 0.75 ng/p1 and 100 μM respectively in a buffer, and then the enzyme solution and the substrate solution were prepared into a mixed solution at a volume ratio of 2:1 for later use. ATP was diluted to 300 μM with buffer. The compound was dissolved in DMSO (dimethyl sulfoxide, Shanghai Titan Scientific Co., Ltd.) to prepare a stock solution with an initial concentration of 20 mM, and then Bravo was used to prepare the compound. Finally, 3 μL of a mixed solution of enzyme and substrate, and 1 μL of different concentrations of the compound (the initial concentration was 50 μM, 4-fold dilution) were added to each well of the 384-well plate, and the plate was incubated at 30° C. for 10 minutes, and finally 1 μL of 300 μM ATP solution was added to each well, and the plate was incubated at 30° C. for 2 hours. Then 5 μL of ADP-Glo was added, and the plate was incubated at 30° C. for 40 minutes. Then 10 μL of kinase detection buffer was added, and the plate was incubated at 30° C. for 40 minutes. The 384-well plate was taken out and placed in a microplate reader (BMG labtech, PHERAstar FS), and the chemiluminescence was measured by a microplate reader.
as §1

ERK2 = biological target: T2, ERK2 (Homo sapiens, UniProt P28482); test: ERK2 enzyme activity test (ADP-Glo Kinase Assay); format: biochemical; details: ADP-Glo chemiluminescence
T2 construct: purchased R&D 1879-KS-010
T2 sequence (P28482 2-360 limits assumed): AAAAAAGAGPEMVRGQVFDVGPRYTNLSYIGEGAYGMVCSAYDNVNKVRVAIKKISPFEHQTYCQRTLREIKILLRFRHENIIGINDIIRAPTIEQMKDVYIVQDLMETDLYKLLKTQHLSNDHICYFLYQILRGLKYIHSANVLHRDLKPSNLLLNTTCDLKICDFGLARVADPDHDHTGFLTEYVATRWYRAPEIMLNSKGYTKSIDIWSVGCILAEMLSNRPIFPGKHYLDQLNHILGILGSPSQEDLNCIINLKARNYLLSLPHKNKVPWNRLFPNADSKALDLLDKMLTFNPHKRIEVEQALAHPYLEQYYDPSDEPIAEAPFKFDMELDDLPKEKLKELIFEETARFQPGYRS
Procedure: as §2, with “the ERK2” for “the ERK1”, “enzyme activity,” for “enzyme activity”
Preparation of enzyme and substrate: ERK2 (1879-KS-010, R&D) and substrate (custom peptide, Gill Biochemical) were prepared to 0.75 ng/ml and 1500 μM in a buffer (40 mM Tris, 20 mM MgCl2, 0.1 mg/ml BSA, 50 μM DTT), and then the enzyme solution and the substrate solution were prepared into a mixed solution at a volume ratio of 2:1 for later use. ATP was diluted to 500 μM with buffer. The compound was dissolved in DMSO (dimethyl sulfoxide, Shanghai Titan Scientific Co., Ltd.) to prepare a stock solution with an initial concentration of 20 mM, and then Bravo was used to prepare the compound. Finally, 3 μL of a mixed solution of enzyme and substrate, and 1 μL substrate of different concentrations of the compound (the initial concentration is 50 μM, 4-fold dilution) were added to each well of the 384-well plate, and the plate was incubated at 30° C. for 10 minutes, and finally 1 μL 500 μM ATP solution was added to each well, and the plate was incubated at 30° C. for 2 hours. Then 5 μL of ADP-Glo was added, and the plate was incubated at 30° C. for 40 minutes. Then 10 μL of kinase detection buffer was added, and the plate was incubated at 30° C. for 40 minutes. The 384-well plate was taken out and placed in a microplate reader (BMG labtech, PHERAstar FS), and the chemiluminescence was measured by a microplate reader.
as §1

Structure (SMILES)	Vd/F [1] [L/kg]	AUC [1] [ng·h/mL]	CL/F [1] [mL/min/kg]	half-life [1] [h]	Cmax [1] [ng/mL]	MRT [1] [h]	IC50 (Colo205 cells) [nM]	IC50 (ERK1) [nM]	IC50 (ERK2) [nM]
COc1cc(F)cc([C@@H](CO)NC(=O)[C@@H](C)N2CCn3cc(-c4nc(NC5CCOCC5)ncc4Cl)cc3C2=O)c1 [Example 4-P2, (R)-2-(7-(5-Chloro-2-((tetrahydro-2H-pyran-4-yl)amino)pyrimidin-4-yl)-1-oxo-3,4-dihydropyrrolo[1,2-a]pyrazin-2(1H)-yl)-N-((S)-1-(3-fluoro-5-methoxyphenyl)-2-hydroxyethyl)propanamide]	3.29	936	35.5	1.07	905	1.07	10	3.8	1
Cc1cccc([C@@H](CO)NC(=O)[C@@H](C)N2CCc3cc(-c4nc(NC5CCOCC5)ncc4Cl)cn3C2=O)c1 [Example 11-P2, (R)-2-(6-(5-Chloro-2-((tetrahydro-2H-pyran-4-yl)amino)pyrimidin-4-yl)-1-oxo-3,4-dihydropyrrolo[1,2-c]pyrimidin-2(1H)-yl)-N-((S)-2-hydroxy-1-(m-tolyl)ethyl)propanamide]	3.51	784	42.4	0.957	813	1.15	26	17	2.1
Cc1cccc([C@@H](CO)NC(=O)[C@@H](C)N2CCn3cc(-c4nc(NC5CCOCC5)ncc4Cl)cc3C2=O)c1 [Example 9-P2, (R)-2-(7-(5-Chloro-2-((tetrahydro-2H-pyran-4-yl)amino)pyrimidin-4-yl)-1-oxo-3,4-dihydropyrrolo[1,2-a]pyrazin-2(1H)-yl)-N-((S)-2-hydroxy-1-(m-tolyl)ethyl)propanamide]	3.14	1330	25.1	1.44	1410	0.838	17.7	9	1.9
COc1cc(F)cc([C@@H](CO)NC(=O)[C@@H](C)N2CCc3cc(-c4nc(NC5CCOCC5)ncc4Cl)cn3C2=O)c1 [Example 2-P2, (R)-2-(6-(5-Chloro-2-((tetrahydro-2H-pyran-4-yl)amino)pyrimidin-4-yl)-1-oxo-3,4-dihydropyrrolo[1,2-c]pyrimidin-2(1H)-yl)-N-((S)-1-(3-fluoro-5-methoxyphenyl)-2-hydroxyethyl)propanamide]	5.94	994	33.5	2.05	867	1.08	15	4.6	1.7
